Test results as given in patent publication US20200392150A1, “Diaryl-B-Lactam Compound and Preparation Method and Pharmaceutical Use Thereof” (Fudan University, priority 2016, published 2020).
Entries after “also recorded” stand apart in the source; their conditions may differ.

How the values were obtained:
MDA-MB-231 cells = test: Colony formation assay; format: cell-based, human; details: 48 h treatment, 7-10 days growth
Experimental: 1000 MDA-MB-231 cells per well were seeded into 6-well plate at a single cell density and were cultured at 37° C. for 48 h. After being treated with indicated concentrations of 69, 70 and 97, CA-4 as positive control, or diluent (0.2% DMSO) as negative control for 48 h, the agents containing medium was replaced by fresh medium to allow cell growth for additional 7-10 days. Then the cells were fixed with methanol and stained with gentian violet for 30 min.
The number of colonies which consisted of more than 50 cells were counted. The results were indicated as mean values from three independent determinations.

Hela cells = test: Cell cycle analysis; format: cell-based, human; details: 24 h
Experimental: 2*10^5 Hela cells per well were seeded into six-well plate and allowed to adhere overnight at 37° C. After treatment with indicated concentrations of 69, 70 and 97, CA-4 as positive control or diluent (0.2% DMSO) as negative control for 24 h, cells were harvested, washed twice with PBS and fixed with 75% ethanol at −20° C. overnight. Then cells were stained with propidium iodide dye (BD Biosciences) for 15 min in dark conditions at room temperature, followed by subjected to flow cytometry (Cytomics FC 500MPL, Beckman Coulter) detection. The results were analyzed by Multicycle AV (for Windows, version 320) software and indicated as mean values from three independent determinations.

tubulin in Hela cells = test: Immunoblotting analysis of polymerized/depolymerized tubulin; format: cell-based, human; details: 6 h
Experimental: After being treated with diluent (0.2% DMSO), tested compound, CA-4 or PTX for 6 h, Hela cells were lysed with microtubulestabilizing buffer, containing 100 mM PIPES, pH 6.8, 1 mM MgCl2, 2 mM EGTA, 0.5% NP-40, 2 M glycerol, 5 μM PTX and protease inhibitors cocktail (Roche), and the lysate was centrifuged at 15,000 rpm for 15 min. Supernatant containing depolymerized tubulin was carefully collected, whereas pellet (polymerized tubulin) was further dissolved in SDS-lysis buffer (Beyotime, China). Equal amounts of supernatant and dissolved pellet were subjected to immunoblotting analysis as described above using atubulin antibody (Proteintech).

tubulin in SKOV-3 cells = test: Immunofluorescent analysis of tubulin morphology; format: cell-based, human; details: 24 h
Experimental: After treatment with diluent (0.2% DMSO) or tested compounds at indicated concentrations for 24 h, SKOV-3 cells were fixed with methanol, permeabilized with 0.1% Triton X-100 in PBS and blocked by goat serum. Then the cells were incubated with a-tubulin antibody at 4° C. overnight, followed by incubation with Alexa 488 labeled secondary antibody (Jackson ImmunoResearch) at RT for 1 h. After being stained with DAPI, cells were examined and photographed with a Leica SP5 co-focal fluorescence microscope.

A2780 cells xenograft = test: Xenografts tumor growth assay in nude mice; format: in vivo, Balb/c nude mice; details: i.p. once every 2 days, 69 7.5 mg/kg, 70 12.5 mg/kg, 97 4 or 8 mg/kg
Experimental: 6 weeks old female Balb/c nude mice were purchased from Shanghai Slac Laboratory Animal Co. Ltd. (Shanghai, China). 2*10^6 A2780 cells suspended in 0.2 mL PBS per mouse was injected subcutaneously into the nude mice. […] Administration of agents or vehicle, or agents and measurement of tumor volumes with a digital caliper was done once every 2 days. Tumor volumes were calculated as volume=shortest diameter (W)^2*longest diameter (L)*0.52. When the average tumor volumes of vehicle treated group reached 2000 mm^3 in diameter, the mice were sacrificed and the tumors were isolated and weighed. Visceral organs of the mice as well as solid tumors were further analyzed by H&E staining.

KM mice = test: Acute toxicity assay; format: in vivo; details: single i.p. injection
Experimental: KM mice were housed individually in a specific pathogen free facility. Groups of mice (n=10 per group, half male and half female) were injected intraperitoneally once with various dosages of 69 (95, 70, 50, 35, 25 mg/kg), 70 (500, 425, 350, 275, 200 mg/kg), 97 (275, 200, 150, 125 and 100 mg/kg) or vehicle (8.3% cremohorp EL and 8.3% alcohol in PBS) as negative control, respectively. 69, 70 and 97 was dissolved in cremeohore EL and alcohol mixture (1:1, v/v) and further diluted with PBS (1:5, v/v). The death of mice were monitored daily and recorded up to 14 days after injection.

[1] = system: Bax, p53 and cleaved-PARP in HeLa cells; test: Expression level of apoptosis associated proteins; format: cell-based, human; details: western blotting and qPCR
Experimental: A. Western blotting: After being treated with candidate compound, cells were harvested and lysed. Then, the lysate was isolated by ultracentrifuge and quantified by BCA assay according to the protocol. After being denatured, equivalent protein of each sample was separated by SDSPAGE gel and wet-transferred onto 0.22 μm nitrocellulose membrane. After being blocked by PBS containing 5% skim milk, the membrane was incubated with primary antibody at 4° C. overnight and secondary antibody at room temperature for 2 h and then visualized by enhanced chemiluminescence kit (Thermo Fisher, USA), sequentially.
B. Quantitative PCR assay: HeLa cells were treated with 69, 70 or 97. The expression level of mRNA of target proteins was tested with qPCR kit (Takara).

Question: How did the colony formation (MDA-MB-231 cells) turn out when `COc1ccc([C@H]2[C@H](C)C(=O)N2c2cc(OC)c(OC)c(OC)c2)cc1O` [Compound 97, (3S,4R)-4-(3-hydroxy-4-methoxyphenyl)-3-methyl-1-(3,4,5-trimethoxyphenyl)azetidin-2-one] was run?
Answer: significantly inhibit the formation of colonies; also recorded: dose-dependently reduced

Question: And the “cell cycle arrest (G2/M, mitotic arrest)” value (Hela cells)?
Answer: significantly arrest cells in the G2/M phase; also recorded: significantly induce cellular mitotic arrest

Question: And the “polymerized tubulin (immunoblotting)” value (tubulin in Hela cells)?
Answer: significantly inhibit tubulin aggregation; also recorded: dramatically reduction of polymerized tubulin

Question: And the “tubulin assembly (immunofluorescence)” value (tubulin in SKOV-3 cells)?
Answer: significantly inhibit tubulin aggregation; also recorded: strongly inhibit tubulin assembly

Question: What about the “H&E staining of liver, kidney and spleen” value (A2780 cells xenograft) of the same compound?
Answer: no abnormal areas are observed in tissue staining of liver, kidney and spleen; also recorded: no detectable abnormalities were observed in liver, kidney and spleen

Question: And the “H&E staining of tumor sections” value (A2780 cells xenograft)?
Answer: cause tumor tissue to produce necrotic areas; also recorded: extensive areas of necrosis or cell death

Question: What about the mouse body weight (A2780 cells xenograft) of the same compound?
Answer: no significant influence on mouse body weight; also recorded: no significant weight loss observed

Question: And the “tumor growth in vivo” value (A2780 cells xenograft)?
Answer: significantly inhibit tumor growth in vivo; also recorded: anti-tumor activities in vivo

Question: And the “No. of dead mice 5-14 days” value (KM mice; 100 mg/kg)?
Answer: 0

Question: What about the “No. of dead mice 1 day” value (KM mice; 100 mg/kg) of the same compound?
Answer: 0

Question: And the “No. of dead mice 2 days” value (KM mice; 100 mg/kg)?
Answer: 0

Question: What about the “No. of dead mice 3 days” value (KM mice; 100 mg/kg) of the same compound?
Answer: 1

Question: What about the “No. of dead mice 4 days” value (KM mice; 100 mg/kg) of the same compound?
Answer: 0

Question: And the “Survival (%) on day 14” value (KM mice; 100 mg/kg)?
Answer: 90%

Question: And the Total death (KM mice; 100 mg/kg)?
Answer: 1

Question: And the “No. of dead mice 5-14 days” value (KM mice; 125 mg/kg)?
Answer: 0

Question: What about the “No. of dead mice 1 day” value (KM mice; 125 mg/kg) of the same compound?
Answer: 0

Question: What about the “No. of dead mice 2 days” value (KM mice; 125 mg/kg) of the same compound?
Answer: 2

Question: What about the “No. of dead mice 3 days” value (KM mice; 125 mg/kg) of the same compound?
Answer: 1

Question: What about the “No. of dead mice 4 days” value (KM mice; 125 mg/kg) of the same compound?
Answer: 0

Question: What about the “Survival (%) on day 14” value (KM mice; 125 mg/kg) of the same compound?
Answer: 70%

Question: What about the Total death (KM mice; 125 mg/kg) of the same compound?
Answer: 3

Question: And the “No. of dead mice 5-14 days” value (KM mice; 150 mg/kg)?
Answer: 0

Question: And the “No. of dead mice 1 day” value (KM mice; 150 mg/kg)?
Answer: 2

Question: What about the “No. of dead mice 2 days” value (KM mice; 150 mg/kg) of the same compound?
Answer: 4

Question: What about the “No. of dead mice 3 days” value (KM mice; 150 mg/kg) of the same compound?
Answer: 0

Question: What about the “No. of dead mice 4 days” value (KM mice; 150 mg/kg) of the same compound?
Answer: 0

Question: What about the “Survival (%) on day 14” value (KM mice; 150 mg/kg) of the same compound?
Answer: 40%

Question: And the Total death (KM mice; 150 mg/kg)?
Answer: 6

Question: What about the “No. of dead mice 5-14 days” value (KM mice; 200 mg/kg) of the same compound?
Answer: 0

Question: And the “No. of dead mice 1 day” value (KM mice; 200 mg/kg)?
Answer: 1

Question: And the “No. of dead mice 2 days” value (KM mice; 200 mg/kg)?
Answer: 4

Question: And the “No. of dead mice 3 days” value (KM mice; 200 mg/kg)?
Answer: 2

Question: What about the “No. of dead mice 4 days” value (KM mice; 200 mg/kg) of the same compound?
Answer: 0

Question: And the “Survival (%) on day 14” value (KM mice; 200 mg/kg)?
Answer: 30%

Question: What about the Total death (KM mice; 200 mg/kg) of the same compound?
Answer: 7

Question: And the “No. of dead mice 5-14 days” value (KM mice; 275 mg/kg)?
Answer: 0

Question: What about the “No. of dead mice 1 day” value (KM mice; 275 mg/kg) of the same compound?
Answer: 2

Question: And the “No. of dead mice 2 days” value (KM mice; 275 mg/kg)?
Answer: 4

Question: And the “No. of dead mice 3 days” value (KM mice; 275 mg/kg)?
Answer: 2

Question: What about the “No. of dead mice 4 days” value (KM mice; 275 mg/kg) of the same compound?
Answer: 1

Question: And the “Survival (%) on day 14” value (KM mice; 275 mg/kg)?
Answer: 10%

Question: And the Total death (KM mice; 275 mg/kg)?
Answer: 9

Question: And the “expression of Bax, p53 and cleaved-PARP” value [1]?
Answer: significantly promote the expression of the proapoptotic protein Bax, the tumor suppressor gene p53, and the cleaved DNA repair enzyme; also recorded: significantly induce the expression of Bax, p53 and cleaved-PARP
